According to paper PMC6413231, “o-Vanillin Derived Schiff Bases and Their Organotin(IV) Compounds: Synthesis, Structural Characterisation, In-Silico Studies and Cytotoxicity” (International Journal of Molecular Sciences, 2019):
Like-named read-outs stand apart in the source and are kept apart here.

What was measured:
[1] = test system: EJ-28 (muscle invasive bladder) cancer cells; assay: MTT cytotoxicity assay, EJ-28; assay type: cell-based, human; conditions: EJ-28 cells, 72 h, ± standard error, read-out: Growth Inhibition Concentration, GI50
Protocol: (§1) The Schiff bases and their organotin(IV) compounds were screened for in vitro cytotoxicity against a panel of 12 cancer cell lines: EJ-28 (muscle invasive bladder), RT-112 (minimum-invasive bladder), HT29 (colon), U87 and SJ-G2 (glioblastoma), MCF-7 (breast), A2780 (ovarian), H460 (lung), A431 (skin), DU145 (prostate), BE2-C (neuroblastoma), MIA (pancreatic) and one normal breast cell line (MCF-10A) using the MTT metabolic assay (Figure 6). After 72 h of incubation, a dose-dependent […] effect towards the cancer cell lines was measured at very low micromolar (µM) concentrations of the compounds. The growth inhibition concentration of the Schiff bases and their organotin(IV) compounds required to inhibit 50% cell proliferation relative to the cells that were treated with DMSO (control) are given in Table 2. The stability of these compounds was assessed in DMSO as well as in a mixture of DMSO-H2O. The absorbance obtained from UV-vis spectroscopy analysis was monitored for 72 h, and an unchanged pattern in the spectra was indicative that the compounds were stable in both the solvent systems tested.
(§2) The inhibitory effect of the synthesised compounds on the growth of bladder (EJ-28 and RT-112) cancer cells was evaluated by MTT assay. […] RT-112 and EJ-28, human bladder cancer cell lines used in this study (ATCC, Manassas, VA, USA) were cultured in RPMI-1640 (High glucose) medium supplemented with 10% fetal bovine serum containing 1% penicillin. The cells were cultured at 37 °C in a humidified atmosphere of 5% CO2 in air. Cells were seeded in 96-well plates at 6000 cells per well for 24 h, then they were treated with different concentrations of compounds for 72 h. The medium was subsequently removed and the wells were washed with 200 µL of phosphate buffer saline. Aliquots of 20 µL of 3-(4,5-dimethylthiazol-2-yl)-2,5-diphenyltetrazolium bromide (MTT) was added to each well and incubated for 4 h at 37 °C. Aliquots of 200 µL of media was then removed from each well and 200 µL of DMSO was added. Optical density (OD) was measured using an ELISA plate reader at 570 nm. Control wells (100% viability), containing media and DMSO, were included in all the experiments. All data points represented an average of triplicate assays. Cytotoxicity was expressed as CD50, i.e., the concentration that reduced the absorbance of treated cells by 50% with reference to the control (untreated cells).

[2] = test system: RT-112 (minimum-invasive bladder) cancer cells; assay: MTT cytotoxicity assay, RT-112; assay type: cell-based, human; conditions: RT-112 cells, 72 h, ± standard error, read-out: Growth Inhibition Concentration, GI50
Protocol: as §1, §2

[3] = test system: HT29 (colon) cancer cells; assay: MTT growth inhibition assay, HT29; assay type: cell-based; conditions: ± standard error, read-out: Growth Inhibition Concentration, GI50
Protocol: as §1
(§3) For HT29 (colon), U87 and SJ-G2 (glioblastoma), MCF-7 (breast), A2780 (ovarian), H460 (lung), A431 (skin), Du145 (prostate), BE2-C (neuroblastoma), MIA (pancreas) cell lines and one normal breast cell line, MCF-10A (normal breast), the MTT assays were performed using the following method:
(§4) Stock solutions were prepared as follows and stored at −20 °C: Trial compounds were stored as 10 mM solutions in DMSO. All cell lines were cultured in a humidified atmosphere 5% CO2 at 37 °C. The cancer cell lines were maintained in Dulbecco’s modified Eagle’s medium (DMEM) (Trace Biosciences) supplemented with 10% foetal bovine serum, 10 mM sodium bicarbonate, penicillin (100 IU/mL), streptomycin (100 μg/mL) and glutamine (4 mM). The normal cell line, MCF-10A was cultured in DMEM:F12 (1:1) cell culture media, 5% heat inactivated horse serum, supplemented with penicillin (50 IU/mL), streptomycin (50 μg/mL), 20mM Hepes, L-glutamine (2 mM), epidermal growth factor (20 ng/mL), hydrocortisone (500 ng/mL), cholera toxin (100 ng/mL) and insulin (10 μg/mL).
(§5) Cells in logarithmic growth were transferred to 96-well plates. Cytotoxicity was determined by plating cells in duplicate in 100 μL medium at a density of 2500–4000 cells/well. On day 0 (24 h after plating), when the cells were in logarithmic growth, 100 μL medium, with or without the test agent, was added to each well. After 72 h drug exposure, growth inhibitory effects were evaluated using the MTT (3-[4,5-dimethylthiazol-2-yl]-2,5-diphenyltetrazolium bromide) assay and absorbance read at 540 nm. Percentage growth inhibition was determined at a fixed drug concentration of 25 μM. A value of 100% was indicative of complete cell growth inhibition. Those analogues showing appreciable percentage growth inhibition underwent further dose-response analysis allowing for the calculation of a GI50 value. This value is the drug concentration at which cell growth is 50% inhibited based on the difference between the optical density values on day 0 and those at the end of drug exposure.

[4] = test system: U87 (glioblastoma) cancer cells; assay: MTT growth inhibition assay, U87; assay type: cell-based; conditions: 72 h, ± standard error, read-out: Growth Inhibition Concentration, GI50
Protocol: as §1, §3, §4, §5

[5] = test system: MCF-7 (breast) cancer cells; assay: MTT growth inhibition assay, MCF-7; assay type: cell-based; conditions: 72 h, ± standard error, read-out: Growth Inhibition Concentration, GI50
Protocol: as §1, §3, §4, §5

[6] = test system: A2780 (ovarian) cancer cells; assay: MTT growth inhibition assay, A2780; assay type: cell-based; conditions: 72 h, ± standard error, read-out: Growth Inhibition Concentration, GI50
Protocol: as §1, §3, §4, §5

H460 (lung) cancer cells = assay: MTT growth inhibition assay, H460; assay type: cell-based; conditions: ± standard error, read-out: Growth Inhibition Concentration, GI50
Protocol: as §1, §3, §4, §5

A431 (skin) cancer cells = assay: MTT growth inhibition assay, A431; assay type: cell-based; conditions: ± standard error, read-out: Growth Inhibition Concentration, GI50
Protocol: as §1, §3, §4, §5

[7] = test system: Du145 (prostate) cancer cells; assay: MTT growth inhibition assay, Du145; assay type: cell-based; conditions: ± standard error, read-out: Growth Inhibition Concentration, GI50
Protocol: as §1, §3, §4, §5

[8] = test system: BE2-C (neuroblastoma) cancer cells; assay: MTT growth inhibition assay, BE2-C; assay type: cell-based; conditions: 72 h, ± standard error, read-out: Growth Inhibition Concentration, GI50
Protocol: as §1, §3, §4, §5

[9] = test system: SJ-G2 (glioblastoma) cancer cells; assay: MTT growth inhibition assay, SJ-G2; assay type: cell-based; conditions: MTT, 72 h, ± standard error, read-out: Growth Inhibition Concentration, GI50
Protocol: as §1, §3, §4, §5

[10] = test system: MIA (pancreatic) cancer cells; assay: MTT growth inhibition assay, MIA; assay type: cell-based; conditions: 72 h, ± standard error, read-out: Growth Inhibition Concentration, GI50
Protocol: as §1, §3, §4, §5

[11] = test system: B-DNA (PDB ID: 1BNA) dodecamer d(CGCGAATTCGCG)2; parameters: method as in PMID 27649452; conditions: comparison value for cisplatin; cited from earlier work
[12] = test system: MCF-10A (normal breast) cell line; assay: MTT growth inhibition assay, MCF10A; assay type: cell-based; conditions: Homo sapiens, MCF-10A, MCF10A normal breast cells, 72 h, ± standard error, read-out: Growth Inhibition Concentration, GI50
Protocol: as §1, §3, §4, §5

N.N.[Cl][Pt][Cl] [Cisplatin, reference compound]
GI50 [1]: 3.97 ± 0.48 µM | GI50 [2]: 3.56 ± 0.88 µM | GI50 ([3]; 72 h): 11 ± 2 µM | GI50 [4]: 4 ± 1 µM | GI50 ([5]; MCF-7 cells): 6.5 ± 0.8 µM | GI50 [6]: 1 ± 0.1 µM | GI50 (H460 (lung) cancer cells; 72 h): 0.9 ± 0.2 µM | GI50 (A431 (skin) cancer cells; 72 h): 2.4 ± 0.3 µM | GI50 ([7]; 72 h): 1.2 ± 0.1 µM | GI50 [8]: 1.9 ± 0.2 µM | GI50 [9]: 0.4 ± 0.1 µM | GI50 [10]: 8 ± 1 µM | lowest binding energy (docking with DNA) [11]: -8.65 kcal/mol

COc1cccc(/C=N/NC(=S)SCc2ccccc2)c1O [SBoVaH, S-Benzyl-β-N-(2-hydroxy-3-methoxybenzylmethylene) Dithiocarbazate]
GI50 ([1]; Homo sapiens): 3.1 ± 0.2 µM | GI50 ([2]; Homo sapiens): 3.7 ± 0.57 µM | GI50 ([3]; Homo sapiens, HT-29, 72 h): 2.2 ± 0.033 µM | GI50 ([4]; Homo sapiens, U-87 MG): 3.1 ± 0.26 µM | GI50 ([5]; Homo sapiens, MCF7, MCF-7 cells): 2.5 ± 0.12 µM | GI50 ([6]; Homo sapiens): 3 ± 0.06 µM | GI50 (H460 (lung) cancer cells; Homo sapiens, NCI-H460, 72 h): 3.3 ± 0.21 µM | GI50 (A431 (skin) cancer cells; Homo sapiens, A-431, 72 h): 3 ± 0.15 µM | GI50 ([7]; Homo sapiens, DU-145, 72 h): 3.4 ± 0.3 µM | GI50 ([8]; Homo sapiens, BE(2)-C): 2.8 ± 0.2 µM | GI50 [9]: 2.4 ± 0.26 µM | GI50 ([10]; Pancreatic cancer cell): 4.5 ± 0.25 µM | GI50 [12]: 3 ± 0.07 µM | melting point: 173 to 174 °C
